Experimental data: patent US9340590B2 (priority 2011, dated 2016)
pIC50: −log10 of the molar value. Like-named read-outs stand apart in the source and are kept apart here. Positions of bridges follow the written chain, without caps; N, C: chain ends. Residues, ends and D or L forms follow the SMILES beside them.

Target: hNav1.5 (Homo sapiens, UniProt Q14524)
Assay: cell-based
Settings: for IC50: IWQ Use Nav1.5 (μM)

Chain of hNav1.5 (Q14524 whole entry, looked up): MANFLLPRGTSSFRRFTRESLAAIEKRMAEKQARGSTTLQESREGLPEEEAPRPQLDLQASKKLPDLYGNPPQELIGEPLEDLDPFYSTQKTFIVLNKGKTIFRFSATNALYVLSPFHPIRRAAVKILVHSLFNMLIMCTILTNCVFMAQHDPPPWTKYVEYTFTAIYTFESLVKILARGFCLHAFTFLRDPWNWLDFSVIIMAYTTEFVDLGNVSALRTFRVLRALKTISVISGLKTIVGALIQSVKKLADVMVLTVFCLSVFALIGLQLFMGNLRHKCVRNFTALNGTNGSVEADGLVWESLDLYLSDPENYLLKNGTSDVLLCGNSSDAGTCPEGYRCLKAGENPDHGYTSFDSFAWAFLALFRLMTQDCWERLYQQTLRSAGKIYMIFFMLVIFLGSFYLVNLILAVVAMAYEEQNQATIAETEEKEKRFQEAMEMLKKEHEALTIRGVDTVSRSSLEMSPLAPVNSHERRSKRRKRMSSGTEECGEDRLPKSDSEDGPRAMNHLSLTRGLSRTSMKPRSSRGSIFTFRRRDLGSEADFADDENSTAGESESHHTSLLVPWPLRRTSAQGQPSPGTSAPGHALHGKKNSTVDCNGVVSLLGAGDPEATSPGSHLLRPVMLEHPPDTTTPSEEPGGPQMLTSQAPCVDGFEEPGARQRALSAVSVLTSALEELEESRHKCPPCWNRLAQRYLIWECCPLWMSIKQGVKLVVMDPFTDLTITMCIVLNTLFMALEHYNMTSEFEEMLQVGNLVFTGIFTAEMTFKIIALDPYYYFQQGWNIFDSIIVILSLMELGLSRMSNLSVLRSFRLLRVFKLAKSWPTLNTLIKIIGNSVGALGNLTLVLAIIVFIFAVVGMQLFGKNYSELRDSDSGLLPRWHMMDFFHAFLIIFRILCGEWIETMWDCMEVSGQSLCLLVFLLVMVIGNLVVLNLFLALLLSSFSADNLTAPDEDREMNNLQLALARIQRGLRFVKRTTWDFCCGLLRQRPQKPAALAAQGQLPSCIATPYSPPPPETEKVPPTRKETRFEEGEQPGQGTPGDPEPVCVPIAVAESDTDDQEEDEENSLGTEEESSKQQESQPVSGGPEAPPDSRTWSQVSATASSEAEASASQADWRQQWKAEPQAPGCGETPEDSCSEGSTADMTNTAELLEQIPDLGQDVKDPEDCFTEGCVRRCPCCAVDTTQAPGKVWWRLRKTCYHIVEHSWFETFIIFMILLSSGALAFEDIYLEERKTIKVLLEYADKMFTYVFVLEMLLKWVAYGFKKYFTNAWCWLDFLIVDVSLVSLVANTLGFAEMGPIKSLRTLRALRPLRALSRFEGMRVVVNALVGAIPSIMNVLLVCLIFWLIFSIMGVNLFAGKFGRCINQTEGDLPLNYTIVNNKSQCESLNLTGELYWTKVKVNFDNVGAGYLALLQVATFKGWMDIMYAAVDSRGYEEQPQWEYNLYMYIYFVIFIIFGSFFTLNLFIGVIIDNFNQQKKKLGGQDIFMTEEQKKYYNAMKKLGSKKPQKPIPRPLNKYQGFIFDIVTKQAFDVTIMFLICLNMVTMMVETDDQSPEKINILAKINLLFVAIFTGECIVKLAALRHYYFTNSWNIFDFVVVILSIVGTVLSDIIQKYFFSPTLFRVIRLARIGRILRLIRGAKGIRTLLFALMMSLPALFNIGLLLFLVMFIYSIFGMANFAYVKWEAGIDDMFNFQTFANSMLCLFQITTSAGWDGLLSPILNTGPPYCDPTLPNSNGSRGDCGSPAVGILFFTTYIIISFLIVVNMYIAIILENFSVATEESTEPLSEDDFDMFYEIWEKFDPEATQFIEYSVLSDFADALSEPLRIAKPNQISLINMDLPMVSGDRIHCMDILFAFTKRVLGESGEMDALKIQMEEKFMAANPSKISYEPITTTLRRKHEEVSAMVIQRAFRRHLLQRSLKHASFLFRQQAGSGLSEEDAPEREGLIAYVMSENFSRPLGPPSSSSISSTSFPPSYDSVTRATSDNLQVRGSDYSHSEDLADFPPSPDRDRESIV

CC[C@@H](C)[C@H]1NC(=O)[C@H]2CSSC[C@H]3NC(=O)[C@@H](C(C)C)NC(=O)[C@@H](CC(C)C)NC(=O)[C@@H](CC(N)=O)NC(=O)[C@H]4CCCN4C(=O)[C@@H](CCCNC(=N)N)NC(=O)[C@@H](CSSC[C@@H](NC(=O)[C@H](N)CC(=O)O)C(=O)N[C@H](CC(C)C)C(=O)NCC(=O)N[C@H](Cc4ccccc4)C(=O)N[C@H](CCSC)C(=O)N[C@H](CCCNC(=N)N)C(=O)N[C@H](CCCCN)C(=O)N2)NC(=O)[C@@H](CSSC[C@H](C(=O)N[C@H](CCCCN)C(=O)N[C@H](Cc2ccc(O)cc2)C(=O)N[C@@H](C(=O)N[C@H](Cc2ccccc2)C(N)=O)C(C)C)NC(=O)[C@@H](Cc2c[nH]c4ccccc24)NC(=O)[C@@H](CCCCN)NC(=O)[C@@H](Cc2c[nH]cn2)NC(=O)[C@@H]([C@H](C)O)NC(=O)[C@@H](CCCNC(=N)N)NC(=O)[C@@H](CO)NC3=O)NC(=O)[C@@H](CCCCN)NC(=O)[C@@H](CC(=O)O)NC(=O)[C@@H](CC(N)=O)NC(=O)[C@@H](CC(=O)O)NC(=O)[C@H]2CCCN2C1=O [compound 2]
IC50: 11.3 µM

CC[C@H](C)[C@@H]1NC(=O)[C@@H]2CSSC[C@@H]3NC(=O)[C@H](C(C)C)NC(=O)[C@H](CC(C)C)NC(=O)[C@H](CC(N)=O)NC(=O)[C@@H]4CCCN4C(=O)[C@H](CCCNC(=N)N)NC(=O)[C@H](CSSC[C@H](NC(=O)[C@@H](N)CC(=O)O)C(=O)N[C@@H](CC(C)C)C(=O)NCC(=O)N[C@@H](Cc4ccccc4)C(=O)N[C@@H](CCSC)C(=O)N[C@@H](CCCNC(=N)N)C(=O)N[C@@H](CCCCN)C(=O)N2)NC(=O)[C@H](CSSC[C@@H](C(=O)N[C@@H](CCCCN)C(=O)N[C@@H](Cc2ccc(O)cc2)C(=O)N[C@H](C(=O)N[C@@H](Cc2ccccc2)C(N)=O)C(C)C)NC(=O)[C@H](Cc2c[nH]c4ccccc24)NC(=O)[C@H](CCCCN)NC(=O)[C@H](Cc2c[nH]cn2)NC(=O)[C@H](Cc2c[nH]cn2)NC(=O)[C@H](CCCNC(=N)N)NC(=O)[C@H](CO)NC3=O)NC(=O)[C@H](CCCCN)NC(=O)[C@H](CC(=O)O)NC(=O)[C@H](CC(N)=O)NC(=O)[C@H](CC(=O)O)NC(=O)[C@@H]2CCCN2C1=O [compound 337] (H-DCLGFMRKCIPDNDKCCRPNLVCSRHHKWCKYVF-NH2; disulfide 2-17, 9-23, 16-30)
pIC50 (Table 22, IonWorks Quattro, use, […], read-out: IWQ Use Nav1.5): 5.34

CC[C@H](C)[C@@H]1NC(=O)[C@@H]2CSSC[C@@H]3NC(=O)[C@H](C(C)C)NC(=O)[C@H](CC(C)C)NC(=O)[C@H](CC(N)=O)NC(=O)[C@@H]4CCCN4C(=O)[C@H](CCCNC(=N)N)NC(=O)[C@H](CSSC[C@H](NC(=O)[C@@H](N)CC(=O)O)C(=O)N[C@@H](CC(C)C)C(=O)NCC(=O)N[C@@H](Cc4ccccc4)C(=O)N[C@@H](CCSC)C(=O)N[C@@H](CCCNC(=N)N)C(=O)N[C@@H](CCCCN)C(=O)N2)NC(=O)[C@H](CSSC[C@@H](C(=O)N[C@@H](CCCCN)C(=O)N[C@@H](Cc2ccc(O)cc2)C(=O)N[C@H](C(=O)N[C@H](Cc2ccccc2)C(N)=O)C(C)C)NC(=O)[C@H](Cc2c[nH]c4ccccc24)NC(=O)[C@H](CCCCN)NC(=O)[C@H](Cc2c[nH]cn2)NC(=O)[C@H]([C@@H](C)O)NC(=O)[C@H](CCCNC(=N)N)NC(=O)[C@H](CO)NC3=O)NC(=O)[C@H](CCCCN)NC(=O)[C@H](CC(=O)O)NC(=O)[C@H](CC(N)=O)NC(=O)[C@H](CC(=O)O)NC(=O)[C@@H]2CCCN2C1=O [compound 404]
IC50: 20.7 µM
